Assay results reported in patent US20230172996A1, “COMPOSITION FOR ALLEVIATING PULMONARY HYPERTENSION, METHOD FOR PREDICTING PROGNOSIS OF PULMONARY HYPERTENSION, METHOD FOR ASSISTING IN DETERMINING SEVERITY OF PULMONARY HYPERTENSION, AND METHOD FOR ASSISTING IN DIAGNOSING PULMONARY HYPERTENSION” (JSR Corporation, priority 2020, published 2023).

Test system: rat model of pulmonary hypertension induced by exposure to hypoxia
Assay: Butyrate-containing water in rat model of pulmonary hypertension induced by exposure to hypoxia
Type: in vivo, SD rats
Details: 100 mM butyrate in water ad libitum for three weeks, oral, compared to vehicle administration group
Procedure: Rats were anesthetized by inhalation of isoflurane (Pfizer) for induction of sedation and analgesia. Throughout the procedure, the body temperature of the rats was maintained at 37 to 38° C. using a rectal thermistor coupled with a thermostatically controlled heating pad. The trachea was cannulated, and the lungs were ventilated with a mouse ventilator (Harvard Apparatus) at a tidal volume of 10 μL/g at a frequency of 70/min. A polyethylene tube was inserted into the right external jugular vein and advanced into the right ventricle to measure right ventricular pressure (RVP). RVP signals were detected by a pressure transducer (MLT0670; ADInstruments), and the signals were relayed to pressure amplifiers (ML117; ADInstruments), and then were sampled continuously with a PowerLab system (ADInstruments, Colorado Springs, Colo.) and recorded on a computer using Chart software (ADInstruments). Heart rate was derived from the right ventricular systolic peaks.
After right ventricular systolic pressure measurement, the rats were killed by anesthesia overdose, and the heart was excised. […] The tissues were blotted, and the weight of the right ventricle (RV) and the weight of the left ventricle (LV)+septum were measured. The ratio of RV to LV+septum weight (the ratio of RV to LV weight) was calculated and used as an index of right ventricular hypertrophy. […]

## CCCC(=O)[O-].[Na+] [butyrate, sodium butyrate]
FIG. 33(A)
  right ventricular systolic pressure: significant inhibition
FIG. 33(B)
  right ventricular hypertrophy (ratio of RV to LV weight): significant inhibition
